{
  "source": "paper PMC11061149",
  "about": "“Protein mimetic 2D FAST rescues alpha synuclein aggregation mediated early and post disease Parkinson’s phenotypes” (Nature Communications, 2024)",
  "key": {"αS aggregation": {"molecular_target": "T1, αS aggregation (Homo sapiens, UniProt P37840)", "T1 construct": "made in house; host or cells: E. coli BL21(DE3)", "test": "SDS-PAGE gel shift assay of soluble and insoluble αS fractions", "type": "biochemical", "details": "for Total (αS, SDS-PAGE gel shift), Average: average of 3 trials; for Total (αS, SDS-PAGE gel shift), Average / Total (αS, SDS-PAGE gel shift), Trial 1-3: sheet S9D; for Total (αS, SDS-PAGE gel shift), Trial 1-3 / αS band intensity, Total: individual trials", "text": "The inhibition of αS aggregation by NS41 was also confirmed by TEM images, which show an abundance (Supplementary Fig. 3a) and low amount (Supplementary Fig. 3b) of αS fibers in the absence and presence of NS41, respectively. We used SDS-PAGE (Sodium dodecyl sulfate polyacrylamide gel electrophoresis) as a complementary assay to validate ThT results and to further characterize the antagonist activity of the monopyridyls against αS aggregation. We used a total of four monopyridyls with varying antagonist activity against αS aggregation for the SDS-PAGE assay. The solutions of αS (±monopyridyls) were centrifuged and the soluble and insoluble fractions were subjected to SDS-PAGE analysis as reported earlier (Fig. 2d, Supplementary Fig. 4a, see details in methods section). The band intensities of the gels in SDS-PAGE assay were quantified using ImageJ software. In the absence of ligands, ~12% of αS was found in the soluble fraction and the rest was found in the insoluble fraction (Fig. 2d, Supplementary Fig. 4a, b). In the presence of NS41 at molar ratios of 1:1 and 2:1 (NS41:αS), 48% and 73% of αS protein were found in the soluble fraction, respectively, and the rest of αS protein was found in the insoluble fraction (Fig. 2d, Supplementary Fig. 4a, b). […] The antagonist activity of the monopyridyls corroborated well from both ThT and the SDS-PAGE assays (Fig. 2a–d, Supplementary Fig. 4a, b). The higher the antagonist activity of monopyridyls against αS aggregation, the lower the ThT intensity and the higher the amount of αS remained in the soluble fraction (Fig. 2a–d, Supplementary Fig. 4a, b). […] It is important to note that NS41 contains a carboxyl (COOH) functional group side chain. […] We have also shown in that work that the foldamer binds to the N-terminus of αS because of its negatively charged COOH functional group interaction with the positively charged lysine residues of αS[24]. […] Additionally, we have also shown that the OPs with the COOH functional group are very effective inhibitors of aggregation of other amyloid proteins that contain lysine amino acid via the formation of salt bridges[30]–[34].\nAn αS solution (100 µM) was prepared in PBS with or without ligands and shaken ([…], 37 °C) until the fluorescence plateaued, as observed using the ThT aggregation assay, indicative of the aggregation of αS as a control (four days for most experiments unless otherwise mentioned). The solutions were separated into soluble and insoluble fractions by centrifugation at 22,000 × g for 20 min. The fractions were diluted in 2×Laemmli protein sample loading buffer (Containing 2.1% SDS, Bio-rad, Hercules, CA), boiled at 95 °C for 5 min, and ran on a 12% Mini-PROTEAN precast protein gel (Bio-rad, Hercules, CA). The gel was visualized using ChemiDoc MP Imaging System (Bio-rad, Hercules, CA) and band intensity was quantified using Image Lab image acquisition and analysis software (Bio-rad, Hercules, CA). Densitometry values were averaged from three technical replicates and reported with the error bars representing their standard deviations."}, "[1]": {"molecular_target": "T2, α-Synuclein (αS) aggregation (Homo sapiens, UniProt P37840)", "T2 construct": "made in house; host or cells: E. coli BL21(DE3)", "test": "Thioflavin T (ThT) dye-based αS aggregation assay (de novo)", "type": "biochemical", "details": "for remaining activity at 100 µM: 96 h, pH 6.5, 100 μM αS, 1×PBS pH 6.5, four days, ligand:αS equimolar, read-out: ThT signal/intensity relative to αS alone (100%); for ThT intensity (raw), individual trials: αS aggregation after four days, NS132 derivatives equimolar (Fig. 2r); for ThT intensity relative to Synuclein alone (=1), Average / ThT intensity relative to Synuclein alone (=1), Trial 1-3: 100 µM αS, four days, equimolar; for ThT intensity relative to Synuclein alone (=1), Trial 1-3 / Relative ThT intensity of αS aggregation: individual trials; for Relative ThT intensity of αS aggregation, Average / Relative ThT intensity of αS aggregation: Synuclein alone about 1", "description": "We used a 2D FAST approach in OPs to identify potent antagonists of the aggregation of αS. In this approach, we start with a library of monopyridyls with different functional groups. The library of monopyridyls was synthesized using 2-chloro-6-methyl-3-nitropyridine as a common precursor, which was treated with primary alcohols with diverse side chain functionalities via a one-pot reaction (Fig. 1B, a and see Supplementary information for synthetic details). […] We selected the side chains containing hydrophobic, polar, positively charged, and negatively charged functional groups, which mimic the side chains of the amino acids (Fig. 1C). […] The monopyridyl library was screened against the aggregation of 100 μM αS at an equimolar ratio using Thioflavin T (ThT) dye-based aggregation assay (Fig. 1B, b). […] The chloro-dipyridyl was reacted with a library of primary amines/thiols to synthesize a library of dipyridyls (Fig. 1B, e) using a one-pot reaction. […] However, a few dipyridyls required column chromatography to separate them from the starting material side chains because of their very high boiling point (7 out of 21 dipyridyls required column, Supplementary Fig. 1). […]\nAggregation Kinetics were measured according to a previously described protocol. […] The solutions were placed in a ThermoMixer (Eppendorf, Hamberg, Germany) at 37 °C with constant shaking at 1300 rpm (rpm). At different time points, 5 μL aliquots of each αS solution were added to 95 μL PBS containing 50 μM Thioflavin T (ThT) dye in a Costar black 96 well plate (Corning Inc., Kennebunk, ME). ThT fluorescence intensity was measured (λex = 450 nm and λem = 490 nm) on an Infinite M200PRO plate reader (Tecan, Männedorf, Switzerland), and plotted against time to give a sigmoidal curve typical of amyloid aggregation. For the single point ThT aggregation, 100 μM αS, in the absence and presence of ligands, was aggregated under the described conditions and the ThT fluorescence was reported at 96 h. The reported ThT intensity values are the average of each experiment conducted in triplicate, with the error bars representing the standard deviations or standard error of the mean (s.e.m.) as described in the main manuscript."}},
  "note": "Several values for one entry are separate records, joined by “and”; a condition that tells them apart may be missing. Equal values may be shown once.",
  "data": [
    {"smiles": "Cc1ccc(NC(=O)c2ccc(NC(=O)c3ccc([N+](=O)[O-])c(NCCc4c[nH]c5ccccc45)n3)c(NCC3CCCCC3)n2)c(OCC(=O)OC(C)(C)C)n1", "note": "[NS132-P]", "values": [
      {"measurement": "amount of αS in the insoluble fraction", "setting": "αS aggregation; 100 µM αS, four days, equimolar", "value": 84, "unit": "%"},
      {"measurement": "Total (αS, SDS-PAGE gel shift), Average", "setting": "αS aggregation; NS132-P 0.5 eq.", "value": 0.8767},
      {"measurement": "Total (αS, SDS-PAGE gel shift), Trial 1-3", "setting": "αS aggregation; NS132-P 0.5 eq.", "value": "0.83 and 0.85 and 0.95"},
      {"measurement": "Total (αS, SDS-PAGE gel shift), Average", "setting": "αS aggregation; NS132-P 1.0 eq.", "value": 1.02},
      {"measurement": "Total (αS, SDS-PAGE gel shift), Trial 1-3", "setting": "αS aggregation; NS132-P 1.0 eq.", "value": "1.069 and 1.01 and 0.98"},
      {"measurement": "remaining activity at 100 µM", "setting": "[1]", "value": 80, "unit": "%"},
      {"measurement": "ThT intensity (raw), individual trials", "setting": "[1]", "value": "15241 and 16712 and 15019"}
    ]},
    {"smiles": "Cc1ccc(NC(=O)c2ccc(NC(=O)c3ccc([N+](=O)[O-])c(NCCc4ccc(O)cc4)n3)c(NCC3CCCCC3)n2)c(OCC(=O)O)n1", "note": "[NS168]", "values": [
      {"measurement": "ThT intensity relative to Synuclein alone (=1), Average", "setting": "[1]", "value": 0.02443},
      {"measurement": "ThT intensity relative to Synuclein alone (=1), Trial 1-3", "setting": "[1]", "value": "0.02302 and 0.02387 and 0.02641"},
      {"measurement": "remaining activity at 100 µM", "setting": "[1]", "value": 2.7, "unit": "%"}
    ]},
    {"smiles": "Cc1ccc(NC(=O)c2ccc([N+](=O)[O-])c(NCCc3c[nH]c4ccccc34)n2)c(OCC(=O)O)n1", "note": "[NS72]", "values": [
      {"measurement": "ThT intensity relative to Synuclein alone (=1), Average", "setting": "[1]", "value": 0.08383},
      {"measurement": "ThT intensity relative to Synuclein alone (=1), Trial 1-3", "setting": "[1]", "value": "0.08532 and 0.05997 and 0.1062"}
    ]},
    {"smiles": "Cc1ccc(NC(=O)c2ccc(NC(=O)c3ccc([N+](=O)[O-])c(Cl)n3)c(NCC3CCCCC3)n2)c(OCC(=O)O)n1", "note": "[NS122]", "values": [
      {"measurement": "αS band intensity, Total, Average", "setting": "αS aggregation; sheet S7B", "value": 100},
      {"measurement": "αS band intensity, Total", "setting": "αS aggregation; sheet S7B", "value": "101.8 and 101.7 and 96.5"},
      {"measurement": "remaining activity at 100 µM", "setting": "[1]", "value": 30, "unit": "%"},
      {"measurement": "Relative ThT intensity of αS aggregation, Average", "setting": "[1]; sheet S7A", "value": 0.339},
      {"measurement": "Relative ThT intensity of αS aggregation", "setting": "[1]; sheet S7A", "value": "0.3017 and 0.3699 and 0.3455"},
      {"measurement": "ThT intensity (raw), individual trials", "setting": "[1]", "value": "5423 and 5518 and 5332"}
    ]},
    {"smiles": "Cc1ccc([N+](=O)[O-])c(OCC2CCCCC2)n1", "note": "[RD222]", "values": [
      {"measurement": "αS band intensity, Total, Average", "setting": "αS aggregation; sheet S4B", "value": 100},
      {"measurement": "αS band intensity, Total", "setting": "αS aggregation; sheet S4B", "value": "97.5 and 99 and 103.5"},
      {"measurement": "ThT intensity relative to Synuclein alone (=1), Average", "setting": "[1]", "value": 0.6644},
      {"measurement": "ThT intensity relative to Synuclein alone (=1), Trial 1-3", "setting": "[1]", "value": "0.6754 and 0.635 and 0.6826"}
    ]},
    {"smiles": "Cc1ccc(NC(=O)c2ccc([N+](=O)[O-])c(NCCc3ccc(O)cc3)n2)c(OCC(=O)O)n1", "note": "[NS160]", "values": [
      {"measurement": "αS band intensity, Total, Average", "setting": "αS aggregation; sheet S5B", "value": 100},
      {"measurement": "αS band intensity, Total", "setting": "αS aggregation; sheet S5B", "value": "103.4 and 101 and 95.6"},
      {"measurement": "ThT intensity relative to Synuclein alone (=1), Average", "setting": "[1]", "value": 0.7268},
      {"measurement": "ThT intensity relative to Synuclein alone (=1), Trial 1-3", "setting": "[1]", "value": "0.8429 and 0.6915 and 0.6459"},
      {"measurement": "Relative ThT intensity of αS aggregation, Average", "setting": "[1]; sheet S5A", "value": 0.7268},
      {"measurement": "Relative ThT intensity of αS aggregation", "setting": "[1]; sheet S5A", "value": "0.8429 and 0.6915 and 0.6459"}
    ]},
    {"smiles": "Cc1ccc(NC(=O)c2ccc(NC(=O)c3ccc([N+](=O)[O-])c(NCC4CCCCC4)n3)c(NCC3CCCCC3)n2)c(OCC(=O)O)n1", "note": "[NS126]", "values": [
      {"measurement": "ThT intensity relative to Synuclein alone (=1), Average", "setting": "[1]", "value": 0.4588},
      {"measurement": "ThT intensity relative to Synuclein alone (=1), Trial 1-3", "setting": "[1]", "value": "0.4925 and 0.4832 and 0.4007"},
      {"measurement": "remaining activity at 100 µM", "setting": "[1]", "value": 45.9, "unit": "%"}
    ]}
  ]
}
